Active and inactive are the calls of the source. The rule behind the calls is not given here.
Legend:
HL-60 [1] = experiment: Effect on absolute levels of Max in human HL60 nuclear extracts at 100 to 200 uM after 30 mins by co-immunoprecipitation assay; conditions: hl-60, 0.5 h
HL-60 [2] = experiment: Effect on absolute levels of c-Myc in human HL60 nuclear extracts at 100 to 200 uM after 30 mins by co-immunoprecipitation assay; conditions: hl-60, 0.5 h
[3] = target: Protein max (Homo sapiens) (UniProt P61244); experiment: Binding affinity to recombinant human full length His6 tagged Max (151 residues) expressed in Escherichia coli M15 (pRep4) at 25 uM by fluorescence polarization assay
[4] = target: Myc proto-oncogene protein (Homo sapiens) (UniProt P01106); experiment: Binding affinity to recombinant human His6 tagged c-Myc bHLH-LZ domain (353 to 439 residues) with GGCD extension at C-terminus expressed in Escherichia coli BL21 DE3 (pLysS) at 25 uM by fluorescence polarization assay
[5] = target: T1, c-Myc/c-Max (Homo sapiens) (UniProt P01106+P61244); experiment: Inhibition of recombinant human His6 tagged c-Myc bHLH-LZ domain (353 to 439 residues) with GGCD extension at C-terminus/recombinant human full length His6 tagged Max (151 residues) expressed in Escherichia coli assessed as reduction of heterodimer binding to HEX labeled E-box-containing DNA after 90 mins by electrophoretic mobility shift assay
[6] = target: Myc proto-oncogene protein (Homo sapiens) (UniProt P01106); experiment: Binding affinity to recombinant human His6 tagged c-Myc bHLH-LZ domain (353 to 439 residues) with GGCD extension at C-terminus expressed in Escherichia coli BL21 DE3 (pLysS) by fluorescence polarization assay
[7] = target: T1, c-Myc/c-Max (Homo sapiens); experiment: Inhibition of c-Myc/Max interaction in human HL60 nuclear extracts at 100 to 200 uM after 30 mins by co-immunoprecipitation assay; assay type: protein assay
H016.4C = experiment: Cytotoxicity against rat H016.4C cells assessed as cell growth inhibition at 6 to 50 uM after 3 to 9 days by trypan blue exclusion assay; assay type: functional, cell-based
[8] = target: Myc proto-oncogene protein (Rattus norvegicus) (UniProt P09416); experiment: Inhibition of c-Myc in rat TGR1 cells assessed as cell growth inhibition at 6 to 50 uM after 3 to 4 days by trypan blue exclusion assay; assay type: cell-based
[9] = Cytotoxicity against rat KO-HMG cells assessed as cell growth inhibition at 6 to 50 uM after 3 to 4 days by trypan blue exclusion assay; assay type: cell-based

Row | SMILES | Activity (HL-60 [1]) | Activity (HL-60 [2]) | Activity [3] | Activity [4] | inhibition [5] | K [6] | inhibition [7] | growth inhibition (GI) (H016.4C) | inhibition [8] | Activity [9]
1 | CCc1ccc(/C=C2\SC(=S)N(CN3CCCCC3)C2=O)cc1 | Non-Toxic | Non-Toxic | inactive | Active | Dose-dependent effect | 5.7 µM | Active | – | – | –
2 | CC(C)c1ccc(/C=C2\SC(=S)N(CN3CCCCC3)C2=O)cc1 | Non-Toxic | Non-Toxic | inactive | Active | Dose-dependent effect | 1.8 µM | Active | inactive | Active | Non-Toxic
3 | C=CCN1C(=O)/C(=C\c2ccc(CC)cc2)SC1=S | Non-Toxic | Non-Toxic | inactive | Active | Dose-dependent effect | 3.1 µM | Active | inactive | Active | Non-Toxic
4 | O=C1/C(=C/c2ccc(Cl)cc2)SC(=S)N1CN1CCCCC1 | Non-Toxic | Non-Toxic | inactive | Active | Dose-dependent effect | 0.6 µM | Active | inactive | Active | Non-Toxic
5 | CCN(CC)c1ccc(/C=C2\SC(=S)NC2=O)cc1 | – | – | inactive | inactive | – | – | – | – | – | –
6 | CCc1ccc(/C=C2\SC(=S)NC2=O)cc1 | Non-Toxic | Non-Toxic | inactive | Active | Dose-dependent effect | 2.3 µM | Active | inactive | Active | Non-Toxic
7 | O=C1NC(=S)S/C1=C\c1ccc(O)cc1 | – | – | inactive | inactive | – | – | – | – | – | –
8 | CCc1ccc(/C=C2\SC(SC)=NC2=O)cc1 | Non-Toxic | Non-Toxic | inactive | Active | Dose-dependent effect | 4.1 µM | Active | – | – | –
9 | O=C1NC(=S)S/C1=C\C1CCCCC1 | Non-Toxic | Non-Toxic | – | – | Dose-dependent effect | – | Active | – | – | –
10 | O=C1NC(=S)S/C1=C\c1ccc(O)c(O)c1 | Non-Toxic | Non-Toxic | inactive | Active | Dose-dependent effect | 8.6 µM | Active | inactive | Active | Non-Toxic
11 | O=C1NC(=S)S/C1=C\c1ccc(Cl)cc1 | Non-Toxic | Non-Toxic | inactive | Active | Dose-dependent effect | 2.5 µM | Active | inactive | Active | Non-Toxic
12 | CC(C)c1ccc(/C=C2\SC(=S)NC2=O)cc1 | Non-Toxic | Non-Toxic | inactive | Active | Dose-dependent effect | 1 µM | Active | – | – | –
13 | C#CCN1C(=O)S/C(=C/c2ccc(CC)cc2)C1=O | Non-Toxic | Non-Toxic | – | – | Dose-dependent effect | – | Active | inactive | Active | Non-Toxic
14 | CCc1ccc(/C=C2\SC(=S)N(CCC(C)=O)C2=O)cc1 | Non-Toxic | Non-Toxic | inactive | Active | Dose-dependent effect | 1.4 µM | Active | inactive | Active | Non-Toxic
15 | C/C(=C1/SC(=S)NC1=O)c1ccccc1 | – | – | inactive | inactive | – | – | – | – | – | –

From ChEMBL document CHEMBL3991942, “Low molecular weight MYC-MAX inhibitors” (2011)
